Reference: patent US20090220435A1, “TIGHT JUNCTION MODULATING PEPTIDE COMPONENTS FOR ENHANCING MUCOSAL DELIVERY OF THERAPEUTIC AGENTS” (priority 2005, published 2009)

Key:
[1] = test system: in vitro epithelial tissue model (EpiAirway™); assay: Drug permeation (Papp) in the in vitro epithelial tissue model
Excerpt: A. A “kit” of 24 EpiAirway™ units can routinely be employed for evaluating five different formulations, each of which is applied to quadruplicate wells. Each well is employed for determination of permeation kinetics (4 time points), transepithelial electrical resistance (TER). An additional set of wells is employed as controls, which are sham treated during determination of permeation kinetics, but are otherwise handled identically to the test sample-containing units for determinations of transepithelial resistance and viability.
B. In all experiments, the mucosal delivery formulation to be studied is applied to the apical surface of each unit in a volume of 100 μL, which is sufficient to cover the entire apical surface. An appropriate volume of the test formulation at the concentration applied to the apical surface (no more than 100 μL is generally needed) is set aside for subsequent determination of concentration of the active material by ELISA or other designated assay.
D. In order to minimize potential sources of error and avoid any formation of concentration gradients, the units are transferred from one 0.9 mL-containing well to another at each time point in the study. These transfers are made at the following time points, based on a zero time at which the 100 μL volume of test material was applied to the apical surface: 15 minutes, 30 minutes, 60 minutes, and 120 minutes.
F. At the completion of each time point, the medium is removed from the well from which each unit was transferred, and aliquotted into two tubes (one tube receives 700 μL and the other 200 μL) for determination of the concentration of permeated test material and, in the event that the test material is cytotoxic, for release of the cytosolic enzyme, lactate dehydrogenase, from the epithelium. These samples are kept in the refrigerator if the assays are to be conducted within 24 hours, or the samples are subaliquotted and kept frozen at −80° C. until thawed once for assays. Repeated freeze-thaw cycles are to be avoided.
EIA kit (p/n S-1178(EIAH6101) was purchased from Peninsula Laboratories Inc. (Division of BACHEM, San Carlos, Calif., 800-922-1516). 17×120 mm polypropylene conical tubes (p/n 352097, Falcon, Franklin Lakes, N.J.) were used for all sample preparations. Eight standards were used for PTH quantitation. The rest of the assay procedure was the same as the kit inserts.
The instant study was designed to evaluate the effect of PN159 itself or in combination with additional permeation enhancers on PTH permeation. The PN159 concentrations evaluated are 25, 50, and 100 μM. The additional permeation enhancers are 45 mg/ml M-β-CD, 1 mg/ml DDPC, and 1 mg/ml EDTA. Sorbitol was used as a tonicifier (146-190 mM) to adjust the osmolarity of formulations to 220 mOsm/kg. The formulation pH was fixed at 4.5. PTH was chosen as a model peptide in this example. 2 mg/ml PTH was combined with PN159 with or without additional permeation enhancers. The combination was tested using an in vitro epithelial tissue model to monitor PTH permeation, transepithelial electrical resistance (TER), and the cytotoxicity of the formulation by LDH assay.
The concentrations of MC-4RA in the basolateral media was analyzed by the RP-HPLC using a C18 RP chromatography with a flow rate of 1 mL/minute and a column temperature of 25° C. • Solvent A: 0.1% TFA in water; Solvent B: 0.1% TFA in ACN • Injection Volume: 50 μL • Detection: 220 nm • RUN TIME: 15 MIN
Galantamine concentration in the formulation and in the basolateral media (permeation samples) was determined using an isocratic LC (Waters Alliance) method with UV detection. • Column: Waters Symmetry Shield, C18, 5 um, 25×0.46 cm • Mobile phase: 5% ACN in 50 mM ammonium formate, pH 3.0 • Flow rate: 1 ml/min • Column temperature: 30° C. • Calibration curve: 0-400 μg/ml Galantamine HBr • Detection: UV at 285 nm

[2] = test system: EpiAirway™ human-derived tracheal/bronchial epithelial cells; assay: Transepithelial electrical resistance (TER) across EpiAirway epithelial cell layer; format: cell-based
[3] = test system: EpiAirway™ human-derived tracheal/bronchial epithelial cells; assay: FITC-dextran / sample permeation across epithelial cell monolayer; format: cell-based
Method: A FITC labeled dextran with a molecular weight 3000 (FD3) was used to assess the efficacy of individual TJMP on epithelial cell monolayer permeation. The tissue insert plates were transferred to a 96-well receiver plate containing 200 μl of DPBS++ as basal media. The apical surface of each tissue culture insert was incubated with a 20 μl sample of a single test formulation (refer to Table 24 of Example 25 for details of test formulations) for one hour at 37° C. in the dark on a shaker (˜100 rpm). Following the 1-hour incubation period, underlying basal media samples were taken from each tissue culture insert and temporarily stored in the dark at room temperature until FD3 levels were quantified by fluorescence spectroscopy. For FD3 measurements, a 150 μl of basal media sample was transferred to a black, clear bottom 96-well plate. Fluorescence emission at 528/20 following excitation at 485/20 were measured using a FL×800 fluorescence plate reader from Biotek Instruments.
Each tissue insert will be placed in an individual well containing 1 ml of MatTek basal media. On the apical surface of the inserts, 25 μl of test formulation will be applied according to study design, and the samples will be placed on a shaker (˜100 rpm) for 1.5 h at 37° C. FITC-labeled dextran solution is added to inserts apically and a fluorescence measurement is made from the basolateral media after the incubation period. The concentration of FITC-dextran is expressed as a percent of the starting material applied to the cells. A FITC labeled dextran with a molecular weight 4000 (MW4000) was used to assess cargo size limitations on individual TJMP permeation. Of note, various size FITC-labeled dextrans are available to perform size limitation studies.
Fluorescein isothiocyanate (FITC) labeled Dextrin (MW 3,000) was added to the treatment mixture at 0.1-1 mg/ml. The treatment mixture was added to the side of the apical wall, and the plates were incubated at 37° C. in an orbital shaker (New Brunswick Scientific, Edison, N.J.) for the designated time at 100 rpm. At the end of incubation, triplicates of 200 ul of the basal medium were transferred to a dark-wall fluorescent reading plate. Fluorescent intensity at wavelength 470 nm was measured by a microplate fluorescence reader FLx800 (BIO-TEK INSTRUMENTS, INC, Winooski, Vt.). Serial dilutions of standard were used to obtain a standard curve and calculate the concentration. Permeability was measured in two ways, as the ratio of donor mass (the apical chamber) or as the ratio of acceptor mass (the basal chamber), expressed in percentage.

[4] = test system: EpiAirway™ human-derived tracheal/bronchial epithelial cells; assay: Cytotoxicity (LDH assay); format: cell-based
Method: The amount of cell death was assayed by measuring the loss of lactate dehydrogenase (LDH) from the cells using a CytoTox 96 Cytoxicity Assay Kit (Promega Corp., Madison, Wis.). Fifty microliters of sample was loaded into a 96-well assay plates. Fresh, cell-free culture medium was used as a blank. 50 μl of substrate solution was added to each well and the plates incubated for 30 minutes at room temperature in the dark. Following incubation, 50 μl of stop solution was added to each well and the plates read on an optical density plate reader at 490 nm.
The amount of cell death will be assayed by measuring the loss of lactate dehydrogenase (LDH) from the cells using a CytoTox 96 Cytotoxicity Assay Kit (Promega Corp., Madison, Wis.). Fifty microliters of sample will be loaded into a 96-well assay plates. Fresh, cell-free culture medium will be used as a blank. Fifty microliters of substrate solution will be added to each well and the plates incubated for 30 minutes at room temperature in the dark. Following incubation, 50 μl of stop solution will be added to each well and the plates read on an optical density plate reader at 490 nm. The measurement of LDH release into the basolateral media indicates relative cytotoxicity of the samples. One hundred percent lysis of control inserts with 0.3% Octylphenolpoly(ethyleneglycolether)×(TritonX-100) allows LDH values to be expressed as percentage of total lysis.
In some embodiments, The amount of cell death was assayed by measuring the release of lactate dehydrogenase (LDH) from the cells into the apical medium using a CytoTox 96 Cytotoxicity Assay Kit (Promega Corp., Madison, Wis.). One percent Octylphenolpoly (ethyleneglycolether)×(Triton X-100™) diluted in phosphate buffered saline (PBS) causes 100% lysis in cultured cells and served herein as a positive control for the LDH assay. Following the one hour incubation period with a test formulation (refer to Table 24 of Example 25 for details of test formulations), the total liquid volume of each insert was brought to a final volume of 200 μl with culture medium. The apical medium was then mixed by pipetting four times with a multichannel pipette set to a 100 μl volume. After mixing, a 100 μl sample from the apical side of each insert was transferred to a new 96-well plate. The apical media samples were sealed with a plate sealer and stored at room temperature for same day analysis or stored overnight at 4° C. for analysis the next day. To measure LDH levels, 5 μl of the 100 μl apical media sample was diluted in 45 μl DPBS in a new 96-well plate. Fresh, cell-free culture medium will be used as a blank. Fifty microliters of substrate solution was added to each well and incubated for 30 minutes at room temperature away from direct light. Following the 30 minute incubation, 50 μl of stop solution was added to each well. Optical density (OD) was measured at 490 nm with a uQuant absorbance plate reader from Biotek Instruments. The measurement of LDH release into the apical media indicates relative cytotoxicity of the samples. Percent cytotoxicity for each test formulation was calculated by subtracting the measured absorbance of the PBS control (basal level of LDH release) from the measured absorbance of the individual test formulation and then dividing that value by the measured absorbance for the 1% Triton X-100™ positive control, multiplied by 100.
An LDH assay was used to assess the cytotoxicity of the treatments. The LDH level was determined by CytoTox96 Non-Radioactive Cytotoxic Assay (Promega, Madison, Wis.) following the manufacturer's protocol. For basal-lateral LDH levels, triplicates of 50 ul of the basal medium were used to determine the LDH level. For apical LDH level, 150 ul of the diluted apical sample was removed by adding 150 ul of Epi-CM to the apical chamber, the medium was mixed by pipeting up and down, and 150 ul medium was removed and diluted 2× (for a final 8-fold dilution) for assay in triplicates of 50 ul.

[5] = 1000 μM, additional assay (in parenthesis)
[6] = 15 minute treatment at the peptide's optimal concentration
[7] = 60 minute treatment at the peptide's optimal concentration

CC(C)C[C@H](NC(=O)[C@H](CCCCN)NC(=O)CNC(=O)[C@H](CC(C)C)NC(=O)[C@@H](NC(=O)[C@@H]1CSSC[C@H](N)C(=O)N[C@@H](CO)C(=O)N[C@@H](CC(N)=O)C(=O)N[C@@H](CC(C)C)C(=O)N[C@@H](CO)C(=O)N[C@@H]([C@@H](C)O)C(=O)N1)C(C)C)C(=O)N[C@@H](CO)C(=O)N[C@@H](CCC(N)=O)C(=O)N[C@@H](CCC(=O)O)C(=O)N[C@@H](CC(C)C)C(=O)N[C@@H](Cc1c[nH]cn1)C(=O)N[C@@H](CCCCN)C(=O)N[C@@H](CC(C)C)C(=O)N[C@@H](CCC(N)=O)C(=O)N[C@H](C(=O)N[C@@H](Cc1ccc(O)cc1)C(=O)N1CCC[C@H]1C(=O)N[C@@H](CCCNC(=N)N)C(=O)N[C@H](C(=O)N[C@@H](CC(N)=O)C(=O)N[C@H](C(=O)NCC(=O)N[C@@H](CO)C(=O)NCC(=O)N[C@H](C(=O)N1CCC[C@H]1C(N)=O)[C@@H](C)O)[C@@H](C)O)[C@@H](C)O)[C@@H](C)O [Calcitonin, salmon calcitonin]
fold increase in Papp in the presence of PN159 [1]: 23-47 fold
Papp ([1]; [PN159] 0 μM, galantamine 40 mg/mL pH 5.0, calcitonin 1 mg/mL pH 3.5, PTH1-34 1 mg/mL pH 4.5, PYY3-36 1 mg/mL pH 5.0): 0.097 ×10⁻⁶ cm/s
Papp ([1]; [PN159] 0 μM, galantamine 40 mg/mL pH 5.0, calcitonin 1 mg/mL pH 3.5, PTH1-34 1 mg/mL pH 4.5, PYY3-36 1 mg/mL pH 5.0, listed as calcitonin): about 1×10^−7 cm/s
Papp ([1]; [PN159] 25 μM, galantamine 40 mg/mL pH 5.0, calcitonin 1 mg/mL pH 3.5, PTH1-34 1 mg/mL pH 4.5, PYY3-36 1 mg/mL pH 7.0): 2.2 ×10⁻⁶ cm/s
Papp ([1]; [PN159] 50 μM, galantamine 40 mg/mL pH 5.0, calcitonin 1 mg/mL pH 3.5, PTH1-34 1 mg/mL pH 4.5): 3.3 ×10⁻⁶ cm/s

CNGRCGGKKKLKLLLKLL [PN679]
% T0 TER ([2]; 25 μM, 1 h, pH 7): 70%
% T0 TER ([2]; 100 μM, 1 h, pH 7): 7%
% T0 TER ([2]; 250 μM, 1 h, pH 7): 2%
% T0 TER ([2]; 500 μM, 1 h, pH 7): −2%
% T0 TER ([2]; 1000 μM, 1 h, pH 7): −2% (−2%)
% T0 TER [2, 5]: −2% (−2%)
% FD3 Permeation ([3]; 25 μM, 1 h, FITC dextran MW 3000): 0%
% FD3 Permeation ([3]; 100 μM, 1 h, FITC dextran MW 3000): 7%
% FD3 Permeation ([3]; 250 μM, 1 h, FITC dextran MW 3000): 8%
% FD3 Permeation ([3]; 500 μM, 1 h, FITC dextran MW 3000): 10%
% FD3 Permeation ([3]; 1000 μM, 1 h, FITC dextran MW 3000): 10% (10%)
% FD3 Permeation [3, 5]: 10% (10%)
optimal dose ([3]; based on TER reduction, sample permeation and LDH release): 100 µM

Maleimide-GLGSLLKKAGKLKLKQPKSKRKV-amide [PN283]
TER reduction ([2]; 100 μM peptide): 39%
TER reduction ([2]; 500 μM peptide): 86%
TER reduction ([2]; 1000 μM peptide): 92%
LDH15 [4, 6]: 0.0007
LDH60 [4, 7]: 0.032
percent permeation ([3]; 100 μM peptide): 0.7%
percent permeation ([3]; 500 μM peptide): 3.9%
percent permeation ([3]; 1000 μM peptide): 5.2%
% Perm 15 [3, 6]: 1.06%
% Perm 60 [3, 7]: 4.99%
permeation of FITC-dextran MW4000 ([3]; 60 minutes of incubation, peptide at optimal concentration): approximately 5%
Optimal Concentration ([3]; greatest TER reduction with highest permeability and no significant cytotoxicity): 1000 µM
